Experimental data taken from ChEMBL document CHEMBL1201862, “PubChem BioAssay data set” (2004).
The source made the active and inactive calls.

Legend:
[1] = inhibitors of Trypanosoma cruzi host-cell infection, confirmation, beta-gal luminescence, NIH3T3 host cells (AID 2630); assay type: functional, cell-based; conditions: Mus musculus
[2] = Luminescence Cell-Based/Microorganism Confirmation at Dose of Inhibitors of Trypanosoma cruzi Infection. [Related pubchem assays: 1885, 1968 ]; assay type: functional
[3] = Luminescence Cell-Based Secondary HTS screen to identify cytotoxic compounds of NIH3T3 cells. [Related pubchem assays: 1885, 1968 ]; assay type: functional
[4] = cytotoxicity toward NIH3T3 fibroblasts, dose response, counter-screen, cell-based, ATP luminescence, mouse fibroblasts (AID 2010); assay type: functional;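 also: cells exposed to compound for about 90 hours before reading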
[5] = inhibitors of intracellular T. cruzi replication, confirmation, NIH3T3 host cells, beta-gal luminescence (AID 2044); assay type: functional, cell-based;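 also: intracellular parasites grown in NIH/3T3 mouse fibroblasts as host cells; luminescent beta-galactosidase reporter signal from transgenic T. cruzi replicating inside host cells; inhibitors lower the luminescence signal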
Escherichia coli [6] = assay: microbe, parasite or virus in culture
[7] = target: T1, RNA-binding protein pos-1 (Caenorhabditis elegans, UniProt G5EF15); assay: inhibitors of POS-1/mex-3 RNA binding, dose response, biochemical, fluorescence polarization (AID 1964);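 also: purified POS-1 fused to maltose binding protein made in E. coli; potency of compounds blocking POS-1 binding to fluorescent RNA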
T1 sequence (G5EF15 whole entry): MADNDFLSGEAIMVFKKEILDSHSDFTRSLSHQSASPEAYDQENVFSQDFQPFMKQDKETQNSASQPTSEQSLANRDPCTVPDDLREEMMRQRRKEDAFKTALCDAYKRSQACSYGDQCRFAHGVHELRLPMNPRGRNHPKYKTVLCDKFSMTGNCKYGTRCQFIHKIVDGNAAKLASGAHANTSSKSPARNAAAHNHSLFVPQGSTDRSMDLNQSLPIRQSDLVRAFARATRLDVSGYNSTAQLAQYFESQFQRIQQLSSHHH

Escherichia coli [8] = assay: microbe, parasite or virus in culture; remark: listed apart in the source
[9] = target: T2, Zinc finger protein mex-5 (Caenorhabditis elegans, UniProt Q9XUB2); assay: MEX-5/TCR-2 RNA interaction inhibitors, dose response, biochemical, C. elegans, fluorescence polarization (AID 1960)
T2 sequence (Q9XUB2 whole entry): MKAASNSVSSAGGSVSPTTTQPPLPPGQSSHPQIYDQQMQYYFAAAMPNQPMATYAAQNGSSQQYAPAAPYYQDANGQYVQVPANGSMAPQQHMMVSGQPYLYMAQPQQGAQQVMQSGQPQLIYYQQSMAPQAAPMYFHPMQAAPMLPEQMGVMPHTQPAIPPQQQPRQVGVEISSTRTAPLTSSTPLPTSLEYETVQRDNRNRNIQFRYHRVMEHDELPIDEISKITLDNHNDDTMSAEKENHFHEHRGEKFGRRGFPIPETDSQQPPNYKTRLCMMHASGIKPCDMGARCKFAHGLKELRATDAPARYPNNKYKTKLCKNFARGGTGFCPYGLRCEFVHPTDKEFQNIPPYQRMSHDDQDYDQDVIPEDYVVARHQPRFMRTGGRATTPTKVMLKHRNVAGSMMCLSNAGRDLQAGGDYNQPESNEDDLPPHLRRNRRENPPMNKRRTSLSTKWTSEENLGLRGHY

HeLa = assay: HeLa cell cytotoxicity, dose response, cytotoxicity control, 24 h, cherry-picked samples (AID 504726); assay type: functional, cell-based; conditions: Homo sapiens;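 also: potency for cytotoxicity as loss of luminescence signal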
Cytochrome P450 1A2 = target: T3, Cytochrome P450 1A2 (Homo sapiens, UniProt P05177);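 also: PubChem cytochrome P450 panel assay, CYP1A2 panel member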
T3 sequence (P05177 whole entry): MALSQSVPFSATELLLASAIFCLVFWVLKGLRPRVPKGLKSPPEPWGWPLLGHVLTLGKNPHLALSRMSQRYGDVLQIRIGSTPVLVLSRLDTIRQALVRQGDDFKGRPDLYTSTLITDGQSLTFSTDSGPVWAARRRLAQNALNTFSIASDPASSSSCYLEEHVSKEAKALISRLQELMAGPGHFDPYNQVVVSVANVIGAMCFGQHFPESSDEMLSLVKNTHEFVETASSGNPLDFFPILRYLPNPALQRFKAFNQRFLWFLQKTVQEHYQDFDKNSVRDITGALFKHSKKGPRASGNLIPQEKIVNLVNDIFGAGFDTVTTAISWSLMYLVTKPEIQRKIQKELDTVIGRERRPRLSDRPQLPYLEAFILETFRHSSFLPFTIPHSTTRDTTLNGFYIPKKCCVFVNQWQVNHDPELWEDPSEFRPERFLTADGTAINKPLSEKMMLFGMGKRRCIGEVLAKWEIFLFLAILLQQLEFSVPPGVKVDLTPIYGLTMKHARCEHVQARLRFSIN

Cytochrome P450 2C19 = Cytochrome P450 2C19 (Homo sapiens, UniProt P33261); assay: Cytochrome panel assay with activity outcomes. Panel member name: p450-cyp2c19 Compounds with AC50 equal or less than 10 uM are considered active; assay type: functional
Cytochrome P450 3A4 = Cytochrome P450 3A4 (Homo sapiens, UniProt P08684);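 also: CYP3A4 tested as one member of a cytochrome P450 panel screen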
Sequence of Cytochrome P450 3A4 (P08684 whole entry): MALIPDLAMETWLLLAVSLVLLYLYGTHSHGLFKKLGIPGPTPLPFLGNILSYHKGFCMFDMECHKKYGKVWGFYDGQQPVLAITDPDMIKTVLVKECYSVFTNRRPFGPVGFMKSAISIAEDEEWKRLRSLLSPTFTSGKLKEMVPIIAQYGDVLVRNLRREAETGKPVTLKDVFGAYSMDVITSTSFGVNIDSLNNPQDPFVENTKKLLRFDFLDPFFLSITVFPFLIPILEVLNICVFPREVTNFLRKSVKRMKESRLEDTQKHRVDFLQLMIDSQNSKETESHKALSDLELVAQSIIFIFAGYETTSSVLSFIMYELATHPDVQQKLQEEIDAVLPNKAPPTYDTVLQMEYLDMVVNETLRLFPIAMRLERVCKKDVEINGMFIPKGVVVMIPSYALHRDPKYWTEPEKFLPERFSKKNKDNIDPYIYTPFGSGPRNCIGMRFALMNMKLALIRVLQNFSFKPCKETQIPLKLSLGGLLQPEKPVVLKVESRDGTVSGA

Sequence of Cytochrome P450 2C19 (P33261 whole entry): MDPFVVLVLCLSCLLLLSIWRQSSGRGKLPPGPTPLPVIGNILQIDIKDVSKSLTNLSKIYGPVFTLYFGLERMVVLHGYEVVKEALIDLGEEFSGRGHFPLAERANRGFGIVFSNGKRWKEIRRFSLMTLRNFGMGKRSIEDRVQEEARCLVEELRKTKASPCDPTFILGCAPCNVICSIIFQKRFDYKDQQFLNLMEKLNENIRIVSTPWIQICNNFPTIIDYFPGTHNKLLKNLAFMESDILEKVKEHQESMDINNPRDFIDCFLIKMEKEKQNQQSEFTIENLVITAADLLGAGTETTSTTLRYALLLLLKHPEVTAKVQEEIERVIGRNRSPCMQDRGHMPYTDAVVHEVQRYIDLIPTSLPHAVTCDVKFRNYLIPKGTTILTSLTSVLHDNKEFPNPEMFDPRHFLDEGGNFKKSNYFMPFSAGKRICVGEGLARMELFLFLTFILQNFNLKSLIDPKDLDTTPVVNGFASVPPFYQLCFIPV

COC(=O)N/N=C/c1ccc([N+](=O)[O-])o1
EC50 [1]: 0.123 µM (active) | EC50 [2]: 0.123 µM (active) | EC50 [3]: > 195 µM (not active) | EC50 [4]: > 60 µM (not active) | EC50 [5]: 0.469 µM (active)

CN(C)C1C(=O)C(C(N)=O)=C(O)C2(O)C(O)=C3C(=O)c4c(O)cccc4C(C)(O)C3C(O)C12 (stereo not drawn)
AC50 (Escherichia coli [6]): < 0.3 µM (active) | EC50 [7]: 65.8 µM (active) | AC50 (Escherichia coli [8]): 14.9 µM (active) | EC50 [9]: 29.9 µM (inconclusive) | AC50 (HeLa): 54.2 µM (active)

O=C(O)CNC(=O)c1ccc([As](=O)(O)O)cc1
AC50 (Cytochrome P450 1A2): inactive | AC50 (Cytochrome P450 2C19): inactive | AC50 (Cytochrome P450 3A4): inactive
